The subject of test [1] is Mycobacterium tuberculosis H37Rv growth inhibition, no glycerol. The experiment in a line: Mycobacterium tuberculosis H37Rv growth inhibition, no glycerol, confirmatory dose response (AID 504901). The following applies: for IC50: measured here: IC50 of growth inhibition.
Assay in test [2]: as above
The conditions noted are these: Mycobacterium tuberculosis H37Rv growth inhibition, no glycerol; at 50 µM (top of the series).

Where “and” joins values, the source holds several entries; their conditions need not be identical. Identical values can stand only once. Calls of active or inactive are those of the source. No rule for the calls is given here. Where only a bound is given, the exact number is not on record here.

68 compounds from PubChem BioAssay AID504901 (Southern Research Specialized Biocontainment Screening …, 2011) can be followed below.

As usually defined, the IC90 is the concentration at which the effect reaches the 90% level. The IC50 is the concentration needed to halve the response being measured. Low readings indicate greater potency, high ones weaker potency. As for `NC[C@H]1O[C@H](O[C@H]2[C@H](O)[C@@H](O[C@H]3O[C@H](CO)[C@@H](O)[C@H](N)[C@H]3O)[C@H](N)C[C@@H]2N)[C@H](O)[C@@H](O)[C@@H]1O`, in test [1], the IC90 is 2470 nM and the IC50 was 2010 nM. In general, inhibition refers to the change of the read-out against control, counted positive when it falls. For the compound `COc1cccc(NC(=O)CSc2nc3c(c(=O)[nH]2)CCC3)c1`, the inhibition in test [2] was 4.58% (inactive). For `CC[N+](C)(CC)CCCCOc1ccc2c(c1)C(=O)c1cc(OCCCC[N+](C)(CC)CC)ccc1-2`, the IC50 in test [1] worked out at 1900 nM. On to `CCOc1ccc(-c2cc(C)[n+](CCc3ccc(OC)c(OC)c3)c(-c3ccc(OCC)cc3)c2)cc1`, for which, in test [1], the IC90 is 1120 nM and the IC50 was found to be 710 nM. With `Cc1ccc(C(=O)N/N=C(/CC(=O)c2cccs2)C(F)(F)F)cc1`, in test [1], the IC90 is 3580 nM and the IC50 came to 2560 nM. For `CN[C@@H]1[C@H](O[C@H]2[C@H](O[C@H]3[C@H](O)[C@@H](O)[C@H](N=C(N)N)[C@@H](O)[C@@H]3N=C(N)N)O[C@@H](C)[C@]2(O)C=O)O[C@@H](CO)[C@H](O)[C@H]1O` the same measures were 220 nM and 150 nM.

In the case of `CO[C@H]1/C=C/O[C@@]2(C)Oc3c(C)c(O)c4c(O)c(c(C=NN5CCN(C)CC5)c(O)c4c3C2=O)NC(=O)/C(C)=C\C=C\[C@H](C)[C@H](O)[C@@H](C)[C@@H](O)[C@@H](C)[C@H](OC(C)=O)[C@@H]1C`, the IC50 in test [1] amounted to 10 nM. This counts as double-digit nanomolar.

On to `Cc1cc(=O)[nH]c(SCC(=O)NC2CCCCC2)n1`, for which the inhibition in test [2] is -0.58% (inactive).

Turning to `O=C(CSc1ncccn1)NC1CCCCC1`, the inhibition in test [2] was -1.46% (inactive). For `Cc1[nH]c2ccccc2c1C(=O)COC(=O)c1ccc([N+](=O)[O-])s1`, in test [1], the IC90 is 27600 nM and the half-maximal inhibitory concentration (IC50) was 26400 nM. For `CCSc1nc2ccccc2c(=O)[nH]1`, in test [2], the inhibition is 1.1% (inactive). As to `Cn1c(SCC(=O)NC2CCCCC2)nc2ccccc2c1=O`, the inhibition in test [2] is -9.98% (inactive). `Cc1nc(SCc2ccccc2Cl)[nH]c(=O)c1C`: the inhibition in test [2] was -13.7% (inactive). Take `CCCCNC(=O)CSc1nc2ccccc2c(=O)[nH]1`: in test [1], the IC90 is 1060 nM and the half-inhibitory concentration (IC50) came out at 320 nM. Consider `O=C(CSc1nc2ccccc2c(=O)[nH]1)NCc1ccc(Cl)cc1`, for which, in test [1], the IC90 was 1470 nM and the IC50 was 1030 nM. Consider `CC1CCN(C(=O)CSc2nc3ccccc3c(=O)[nH]2)CC1`, for which, in test [2], the inhibition was -4.55% (inactive). In the case of `COc1cccc(NC(=O)CSc2nc3ccccc3c(=O)[nH]2)c1`, in test [2], the inhibition is -14.5% (inactive). With `Cc1nc(SCC(=O)NCCC(C)C)[nH]c(=O)c1C`, in test [1], the IC90 was 12800 nM and the 50% inhibitory concentration (IC50) was found to be 8990 nM. Take `CC(C)CNC(=O)CSc1nc2ccccc2c(=O)[nH]1`: in test [1], the IC90 is 790 nM and the IC50 stood at 410 nM. Take `NC(=O)CSc1nc2ccccc2c(=O)[nH]1`: in test [2], the inhibition was -10.9% (inactive). `O=C(CSc1nc2ccccc2c(=O)[nH]1)NC1CCCC1`: in test [1], the IC90 was 500 nM and the IC50 amounted to 330 nM. Regarding `Cc1nc(SCC(=O)N(C)c2ccccc2)[nH]c(=O)c1C`, the inhibition in test [2] was -3.18% (inactive). As to `Cc1cc(Br)ccc1NC(=O)c1cnc(N2CCN(c3ccccn3)CC2)c2ccccc12`, in test [1], the IC90 was 50000 nM and the IC50 stood at 3420 nM. `O=C(CSc1nccc(=O)[nH]1)NC1CCCCC1`: the inhibition in test [2] was -0.32% (inactive). With `CC(Sc1nc2ccccc2c(=O)[nH]1)C(=O)NC1CCCCC1` (stereo not given), in test [2], the inhibition is -6.09% (inactive). For `Cc1nc(SCC(=O)NC2CCCCC2)[nH]c(=O)c1C`, in test [1], the IC90 was 3780 nM and the IC50 worked out at 650 nM. With `CCCc1cc(C(N)=S)ccn1`, in test [1], the IC90 was 50000 nM and the IC50 was found to be 8840 nM. With `CCC(Sc1nc2ccccc2c(=O)[nH]1)C(=O)NC1CCCCC1` (stereo not given), in test [2], the inhibition is -7.27% (inactive). With `Cc1[nH]c(=S)[nH]c(=O)c1C`, in test [2], the inhibition was 3.12% (inactive). In the case of `CN1CCC(NC(=O)CSc2nc3ccccc3c(=O)[nH]2)CC1`, the inhibition in test [2] was -11.8% (inactive).

For `Cc1ccc(NC(=O)CSc2nc3ccccc3c(=O)[nH]2)cc1Cl`, the inhibition in test [2] is -3.41% (inactive).

For `CCSc1nc(C)c(C)c(=O)[nH]1`, in test [2], the inhibition is -2.72% (inactive). In the case of `CNC(=O)CSc1nc2ccccc2c(=O)[nH]1`, the inhibition in test [2] was 11.7% (inactive). In the case of `Cc1cccc(-c2oc3ccc(-c4ccc5c(c4)OCO5)cc3c2C#Cc2cncn2C)c1`, in test [1], the IC90 was 2960 nM and the 50% inhibitory concentration (IC50) came to 2360 nM. Regarding `CCC(Sc1nc2ccccc2c(=O)[nH]1)C(=O)Nc1cccc(OC)c1` (stereo not given), the inhibition in test [2] is -3.07% (inactive). The same measure, in the same setting: then `O=C(CSc1ccccn1)NC1CCCCC1`, with 3.21% (inactive). In the case of `CC(C)N=c1cc2n(-c3ccc(Cl)cc3)c3ccccc3nc-2cc1Nc1ccc(Cl)cc1`, in test [1], the IC50 is over 140 nM. For `Cc1cccc(/C=C/C(=O)c2ccc([N+](=O)[O-])o2)c1`, in test [1], the IC90 is 2060 nM and the IC50 is 1360 nM. With `COc1ccc(NC(=O)CSc2nc3ccccc3c(=O)[nH]2)cc1`, the inhibition in test [2] is -9.6% (inactive). `COc1c(N2CCNC(C)C2)c(F)cc2c(=O)c(C(=O)O)cn(C3CC3)c12` (stereo not given) registered an IC50 in test [1] of 140 nM. Turning to `O=C(CSc1nc2c(c(=O)[nH]1)CCC2)NC1CCCCC1`, in test [1], the IC90 was under 110 nM and the IC50 is under 70 nM. Turning to `CN(C)C(=O)CSc1nc2ccccc2c(=O)[nH]1`, the inhibition in test [2] was -6.71% (inactive). On the same count and under the same terms, then `O=C(CSc1nc2ccccc2c(=O)[nH]1)N1CCOCC1`, with 0.57% (inactive); and `COC(=O)c1ccc(CNc2c(N3CCCC3)c(=O)c2=O)cc1`, with -8.74% (inactive). `CCOC(=O)CSc1nc(C)c(C)c(=O)[nH]1`: the inhibition in test [2] was -7.41% (inactive).

`NC(=O)c1cnccn1`: the inhibition in test [2] is 1.71% (inactive). `Cc1nc(SCC(N)=O)[nH]c(=O)c1C`: the inhibition in test [2] is -0.93% (inactive). On to `O=C(CSc1nc2c(c(=O)[nH]1)CCCC2)NC1CCCCC1`, for which, in test [1], the IC90 is 160 nM and the concentration for half-maximal inhibition (IC50) is 90 nM.

For the compound `CC(C)CCNC(=O)CSc1nc2c(c(=O)[nH]1)CCC2`, in test [1], the IC90 is 1720 nM and the IC50 came out at 1400 nM. Consider `O=C(CSc1nc2ccccc2c(=O)[nH]1)NC1CCCCC1`, for which, in test [1], the IC90 is 510 nM and 80 nM.

On to `Cc1nc(SCC(=O)NC2CCCC2)[nH]c(=O)c1C`, for which, in test [1], the IC90 is 13800 nM and the IC50 worked out at 9690 nM.

For the compound `O=c1[nH]c(=S)[nH]c2ccccc12`, the inhibition in test [2] is -9.52% (inactive). Turning to `O=c1[nH]c(SCc2ccccc2Cl)nc2c1CCCC2`, in test [2], the inhibition is -5.59% (inactive). For the compound `Cc1c[nH]c(=S)[nH]c1=O`, the inhibition in test [2] is -2.94% (inactive). For the compound `CCOC1OC(=O)C(Cl)=C1Nc1ccccc1C` (stereo not given), in test [1], the IC90 is 5870 nM and the IC50 amounted to 3110 nM. In the case of `CCC(Sc1nc2c(c(=O)[nH]1)CCC2)C(=O)Nc1cccc(OC)c1` (stereo not given), the inhibition in test [2] was 3.19% (inactive). With `Cc1cnc(SCC(=O)NC2CCCCC2)[nH]c1=O`, the inhibition in test [2] was -9.54% (inactive). In the case of `COC(=O)C(Nc1nc(SCC(=O)NC2CCCCC2)nc2ccccc12)c1ccccc1` (stereo not given), the inhibition in test [2] was -3.62% (inactive).

In the case of `Cc1ccc(NC(=O)COC(=O)CCc2c[nH]c3ccccc23)cc1[N+](=O)[O-]`, in test [1], the concentration for an effect of 90% (IC90) was 7750 nM and the IC50 is 2730 nM. As to `CC(C)NC(=O)CSc1nc2ccccc2c(=O)[nH]1`, in test [1], the IC90 was 14600 nM and the IC50 is 9570 nM. Turning to `CC(C)CCNC(=O)CSc1nc2ccccc2c(=O)[nH]1`, in test [1], the IC90 was 500 nM and the IC50 is under 140 nM. Consider `Cc1cc(C)n2nc(N)c(N=Nc3ccccc3)c2n1`, for which, in test [1], the IC90 was 5960 nM and the IC50 was 4550 nM. `COC(=O)C(C)Oc1ccc(Cc2ncc(C(F)(F)F)cc2Cl)cc1` (stereo not given): in test [1], the IC90 was 5610 nM and the IC50 was 3950 nM. For the compound `Nc1cc(=O)[nH]c(SCC(=O)NC2CCCCC2)n1`, the inhibition in test [2] is -6.39% (inactive). For the compound `CN(C(=O)CSc1nc2ccccc2c(=O)[nH]1)C1CCCCC1`, the inhibition in test [2] was -7.16% (inactive). In the case of `CC1CCN(C(=O)C2CCN(c3nnc(-n4cccc4)s3)CC2)CC1`, in test [1], the IC90 was 6400 nM and the IC50 amounted to 3290 nM.

As to `Nc1c(C(=O)NC2CCCCC2)nsc1C(=O)OCC(=O)NC1CCCCC1`, in test [1], the IC90 was 6830 nM and the IC50 amounted to 4100 nM. As for `Cc1cc(=O)[nH]c(=S)[nH]1`, the inhibition in test [2] is -7.95% (inactive).
